{"source": "patent US20250213636A1", "about": "“A […] ANAESTHETIC FORMULATION AND A METHOD OF PREPARATION” (priority 2022, published 2025)", "key": {"Wistar rats": {"system": "Wistar rats", "test": "In vivo analgesia duration test using electrical stimulation (vocal response)", "design": "species or system Wistar albino rats", "procedure": "In vivo analgesia duration test was conducted using electrical stimulation testing, which was used as a means of determining analgesia in animals and humans (Grant et al., 2000). Testing for analgesia was done by a vocal response to electrical stimulation (beginning at 1 mA and increasing to a maximum of 8 mA) at the skin directly overlying the abdomen at the site of injection using a current generator. The abdominal hair of the experimental rats was shaved off, and they were screened prior to injection to determine their vocalization threshold, the current required to produce a vocalization response.\nAnimals will be treated in the following manner.\nPolyherbal anaesthetic formulation, standard drug and 0.9% normal saline samples were injected subcutaneously into the abdomen of the experimental rats, followed by determination of analgesia at the fixed time intervals (5, 10, 20, 30, 40, 50, 60, and 70 min)."}, "[1]": {"system": "rats (tail, noxious heat stimulus)", "test": "Tail-flick latency (TFL) test of local anaesthetic effect", "type": "in vivo", "procedure": "Local anaesthetic effects of LA-containing formulations were evaluated by tail-flick latency (TFL) test using a tail-flick measuring device (Ugo Basile, Varese, italy) (Puglia et al., 2011; Ouchi et al., 2013; Caffarel-Salvador et al., 2015). A noxious heat stimulus was applied via a focused, radiant heat light source to the dorsal surface of the tail. Tail-flick test started 5 min after the local application of different preparations, and the test was conducted every 10 min for 120 min. TFL was converted to represent the maximum possible effect (MPE) according to the following equation: […]\nThe baseline TFL was calculated as the mean of three different measurements taken at 10-min intervals. Baseline latencies were typically ranged from 2.5 to 3.0 s. A maximum cut-off latency of 10s was set to avoid tissue damage in analgesic animals. Results are expressed as mean±standard of eight rats per group."}}, "note": "Marks after values point to notes of the source that are not given here."}
{"smiles": "CCN(CC)CC(=O)Nc1c(C)cccc1C", "note": "[lignocaine 2% solution, lignocaine]", "values": [{"measurement": "Median duration of analgesia", "setting": "Wistar rats; 0.05 mL subcutaneous injection into abdomen, rats", "result": 35, "unit": "min"}, {"measurement": "Percentage (%) of animals with analgesia", "setting": "Wistar rats; 5 minutes after 0.05 mL s.c.", "result": "100.00** %"}, {"measurement": "Percentage (%) of animals with analgesia", "setting": "Wistar rats; 10 minutes after 0.05 mL s.c.", "result": "100.00** %"}, {"measurement": "Percentage (%) of animals with analgesia", "setting": "Wistar rats; 20 minutes after 0.05 mL s.c.", "result": "100.00** %"}, {"measurement": "Percentage (%) of animals with analgesia", "setting": "Wistar rats; 30 minutes after 0.05 mL s.c.", "result": "66.67** %"}, {"measurement": "Percentage (%) of animals with analgesia", "setting": "Wistar rats; 40 minutes after 0.05 mL s.c.", "result": "33.33** %"}, {"measurement": "Percentage (%) of animals with analgesia", "setting": "Wistar rats; 50 minutes after 0.05 mL s.c.", "result": "33.33** %"}, {"measurement": "Percentage (%) of animals with analgesia", "setting": "Wistar rats; 60 minutes after 0.05 mL s.c.", "result": "16.67** %"}, {"measurement": "Percentage (%) of animals with analgesia", "setting": "Wistar rats; 70 minutes after 0.05 mL s.c.", "result": "16.67** %"}, {"measurement": "Duration of anaesthetic effect/activity after application", "setting": "[1]", "result": "up to 30 min"}]}
